This is an account of results in ChEMBL document CHEMBL3351493, “Beta-aminoketones as prodrugs for selective irreversible inhibitors of type-1 methionine aminopeptidases” (Bioorg Med Chem Lett, 2014).

The nature of data set [1]: Glutathione reactivity assessed as second-order rate constant at 250 uM at pH 6.0 by HPLC-UV method.
Another data set concerns HaCaT. Kind of data set: Cytotoxicity against human HaCaT cells at 1.6 to 100 ug/ml after 72 hrs by crystal violet assay. Format: cell-based.
A short description of data set [2]: Cytotoxicity against human Flow 2002 cells at 1.6 to 100 ug/ml after 72 hrs by crystal violet assay. Format: cell-based. The conditions noted are these: flow 2002, 72 h.
A further data set has as its system A 172. Kind of data set: Cytotoxicity against human A172 cells at 1.6 to 100 ug/ml after 72 hrs by crystal violet assay. Format: functional, cell-based.
Another data set deals with CAPAN-1. Put plainly: Cytotoxicity against human Capan1 cells at 1.6 to 100 ug/ml after 72 hrs by crystal violet assay. In kind it is functional, cell-based.
Another data set relates to Ca-Ski. Put plainly: Cytotoxicity against human CaSki cells at 1.6 to 100 ug/ml after 72 hrs by crystal violet assay. In kind it is functional, cell-based.
A further data set deals with SW707. Kind of data set: Cytotoxicity against human SW707 cells at 1.6 to 100 ug/ml after 72 hrs by crystal violet assay. Format: functional, cell-based.
A further data set deals with Calu-6. Kind of data set: Cytotoxicity against human Calu6 cells at 1.6 to 100 ug/ml after 72 hrs by crystal violet assay. Format: functional, cell-based.
Another data set has as its system MeWo. Put plainly: Cytotoxicity against human MeWo cells at 1.6 to 100 ug/ml after 72 hrs by crystal violet assay. Format: functional, cell-based.
In another data set the test system is BT-474. Kind of data set: Cytotoxicity against human BT474 cells at 1.6 to 100 ug/ml after 72 hrs by crystal violet assay. Format: functional, cell-based.
The next data set relates to A-431. Put plainly: Cytotoxicity against human A431 cells at 1.6 to 100 ug/ml after 72 hrs by crystal violet assay. In kind it is functional, cell-based.
The subject of data set [3] is Escherichia coli. Kind of data set: Antimicrobial activity against Escherichia coli BL21(DE3) assessed as inhibition of bacterial growth incubated at 37 degC for 7 hrs. Format: functional.
Data set [4] addresses T1, Methionine aminopeptidase (Escherichia coli K-12, UniProt P0AE18).
T1 sequence (P0AE18 whole entry): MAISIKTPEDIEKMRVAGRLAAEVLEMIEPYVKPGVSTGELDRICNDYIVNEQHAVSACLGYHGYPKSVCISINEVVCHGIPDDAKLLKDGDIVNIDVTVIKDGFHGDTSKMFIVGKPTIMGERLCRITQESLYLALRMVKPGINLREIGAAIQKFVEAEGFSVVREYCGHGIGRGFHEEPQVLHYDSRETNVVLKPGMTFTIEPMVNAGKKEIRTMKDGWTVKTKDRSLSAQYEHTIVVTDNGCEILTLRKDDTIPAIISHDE
Kind of data set: Inhibition of C-terminal poly-His-tagged Escherichia coli MetAP expressed in Escherichia coli BL21(DE3) incubated for 30 mins before MGMM substrate addition by fluorescence assay.

The target of data set [5] is Methionine aminopeptidase (Staphylococcus aureus (strain COL), UniProt Q5HEN6). Put plainly: Inhibition of N-terminal poly-His-tagged Staphylococcus aureus COL MetAP expressed in Escherichia coli BL21(DE3) incubated for 30 mins before MGMM substrate addition by fluorescence assay. On the set-up: species or system Staphylococcus aureus subsp. aureus COL.
Methionine aminopeptidase (Staphylococcus aureus (strain COL), UniProt Q5HEN6), sequence (Q5HEN6 whole entry): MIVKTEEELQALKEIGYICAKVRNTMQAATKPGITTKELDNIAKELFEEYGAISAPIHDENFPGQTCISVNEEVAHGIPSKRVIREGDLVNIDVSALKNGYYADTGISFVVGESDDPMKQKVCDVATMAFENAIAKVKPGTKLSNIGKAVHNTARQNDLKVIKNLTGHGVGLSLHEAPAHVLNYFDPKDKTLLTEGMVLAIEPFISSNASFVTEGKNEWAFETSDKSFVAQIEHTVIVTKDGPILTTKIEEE
The target of data set [6] is Methionine aminopeptidase 1 (Homo sapiens, UniProt P53582). Put plainly: Inhibition of N-terminal poly-His-tagged human MetAP-1 expressed in Escherichia coli BL21(DE3) incubated for 30 mins before MGMM substrate addition by fluorescence assay.
Data set [7] deals with Escherichia coli. Kind of data set: Antimicrobial activity against Escherichia coli BL21(DE3) assessed as inhibition of bacterial growth at 200 uM incubated at 37 degC for 7 hrs. Format: functional. The note with it: for inhibition at 200 µM: BL21-DE3, 7 h.
The nature of data set [8]: Half life assessed as decomposition into amines and unsaturated ketones at 250 uM in 50 mM Tris/maleate pH 7.5 buffer by HPLC method. Format: physicochemical. The conditions noted are these: for half-life at 250 µM: Tris/maleate buffer, pH 7.5; for t1/2: buffer, pH 7.5, 250 µM.
Data set [9] addresses Methionine aminopeptidase 2 (Homo sapiens, UniProt P50579). The note with it: sf9.
Description: Inhibition of human MetAP-2 expressed in Sf9 cells incubated for 60 mins before MGMM substrate addition by fluorescence assay

Activity calls are given as the source filed them.

The term MIC denotes the lowest concentration found to suppress growth. What is called IC50 is the concentration needed to halve the response being measured. The inhibition is how much of the control response was suppressed. One may read the half-life as the time needed for the level to fall by half in the phase considered.

Methionine aminopeptidase 2, sequence (P50579 whole entry): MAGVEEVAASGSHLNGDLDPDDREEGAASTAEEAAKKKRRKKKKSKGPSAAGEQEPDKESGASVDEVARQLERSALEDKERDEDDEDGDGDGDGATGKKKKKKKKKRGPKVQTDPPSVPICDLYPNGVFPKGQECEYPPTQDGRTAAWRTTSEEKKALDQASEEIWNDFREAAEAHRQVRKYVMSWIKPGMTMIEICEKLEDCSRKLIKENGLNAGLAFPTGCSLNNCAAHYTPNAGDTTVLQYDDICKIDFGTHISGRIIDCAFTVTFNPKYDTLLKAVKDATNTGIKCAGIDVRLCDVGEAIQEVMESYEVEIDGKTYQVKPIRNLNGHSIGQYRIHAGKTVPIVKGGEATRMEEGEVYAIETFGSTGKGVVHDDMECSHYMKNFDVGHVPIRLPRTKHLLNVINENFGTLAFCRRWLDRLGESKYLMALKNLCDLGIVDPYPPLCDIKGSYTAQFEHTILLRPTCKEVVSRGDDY

Regarding `C=C1CCc2ccc(OC)cc2C1=O`, the K in [1] was determined as 1.7 M⁻¹ s⁻¹. Also, the Activity result (with HaCaT; in data set [2]) was “Toxic” in each case. For the same compound, the outcome in the data set with A 172, in the data set on CAPAN-1, in the data set with Ca-Ski, with SW707, with Calu-6 and with MeWo was Active. Moreover, the outcome in the data set on BT-474 and with A-431 was Active.

As to `NC[C@H]1O[C@H](O[C@H]2[C@H](O)[C@@H](O[C@H]3O[C@H](CO)[C@@H](O)[C@H](N)[C@H]3O)[C@H](N)C[C@@H]2N)[C@H](O)[C@@H](O)[C@@H]1O.O=S(=O)(O)O` [KANAMYCIN SULFATE], in the data set on Escherichia coli [3], the minimal inhibitory concentration (MIC) was determined as 10 µg/mL.

Turning to `C[C@@H]1O[C@@H]1P(=O)([O-])[O-].[Na+].[Na+]` [PHOSPHOMYCIN DISODIUM], the minimum inhibitory concentration (MIC) in the data set with Escherichia coli [3] is 20 µg/mL.

As for `COc1ccc2c(c1)C(=O)C(CN1CCCCC1)CC2.Cl` (stereo not drawn), the concentration for half-maximal inhibition (IC50) in data set [4] (read-out: IC50) is 3.7 µM; in [5], “Not Active”; in data set [6], “Not Active”; in [9] it was “Not Active”. Moreover, the inhibition at 200 µM in the data set with Escherichia coli [7] came to 30%. Also, the half-life at 250 µM in data set [8] was found to be 10.5 h. Moreover, the Activity entry (in the data set with HaCaT; in data set [2]) was “Toxic” throughout. For the same compound, the outcome in the data set with A 172, in the data set on CAPAN-1, in the data set with Ca-Ski, in the data set with SW707, in the data set on Calu-6 and in the data set with MeWo was Active. The result in the data set with BT-474 and in the data set on A-431 was Active.

As for `CN(C)[C@@H]1C(O)=C(C(N)=O)C(=O)[C@@]2(O)C(O)=C3C(=O)c4c(O)cccc4[C@@](C)(O)[C@H]3C[C@@H]12.Cl` [TETRACYCLINE HYDROCHLORIDE], in the data set on Escherichia coli [3], the MIC worked out at 1 µg/mL.

As to `Cl.O=C1c2ccccc2CCC1CN1CCCCC1` (stereo not drawn), the half-inhibitory concentration (IC50) in data set [4] (read-out: IC50) was 9.1 µM; in data set [5], “Not Active”; in data set [6], “Not Active”; in data set [9], “Not Active”. Besides, the inhibition at 200 µM in the data set on Escherichia coli [7] is 28%. The half-life at 250 µM in [8] was found to be 14.4 h. Further, the Activity entry (in the data set on HaCaT; in data set [2]) was “Toxic” throughout. The outcome with A 172, with CAPAN-1, in the data set with Ca-Ski, with SW707, in the data set with Calu-6 and in the data set on MeWo was Active. Moreover, the result in the data set with BT-474 and with A-431 was Active.

In the case of `COc1cc2c(cc1OC)C(=O)C(CN(C)C)C2.Cl` (stereo not drawn), the IC50 in data set [4] (read-out: IC50) was 1.7 µM; in data set [5] (read-out: IC50) it was 18.9 µM; in [6], “Not Active”; in data set [9], “Not Active”. In addition, in the data set with Escherichia coli [7], the inhibition at 200 µM was found to be 17%. Also, the half-life at 250 µM in data set [8] was found to be 0.933 h. Also, the Activity entry (in the data set with HaCaT; in data set [2]) was “Toxic” in each case. The outcome in the data set with A 172, with CAPAN-1, with Ca-Ski, in the data set with SW707, in the data set on Calu-6 and in the data set on MeWo was Active. Further, the result in the data set with BT-474 and with A-431 was Active.

On to `C=C1CCc2ccccc2C1=O`, for which the K in [1] stood at 1.4 M⁻¹ s⁻¹. For the same compound, the Activity result (in the data set with HaCaT; in data set [2]) was “Toxic” in each case. The result in the data set on A 172, in the data set on CAPAN-1, in the data set with Ca-Ski, in the data set on SW707, in the data set on Calu-6 and in the data set with MeWo was Active. Moreover, the outcome in the data set on BT-474 and in the data set with A-431 was Active.

Regarding `CN(C)CC1(C)Cc2ccccc2C1=O.Cl` (stereo not drawn), the half-inhibitory concentration (IC50) entry in [4], in data set [5], in data set [6] and in [9] was “Not Active” each time. Moreover, the inhibition entry in the data set with Escherichia coli [7] was “inactive”. In addition, the t1/2 entry in data set [8] is recorded as “Stable”. The Activity entry (in the data set on HaCaT; in data set [2]) was “Non-toxic” throughout. In addition, the outcome in the data set with A 172, in the data set with CAPAN-1, in the data set with Ca-Ski, in the data set with SW707, in the data set with Calu-6 and in the data set with MeWo was inactive. Besides, the result in the data set with BT-474 and in the data set on A-431 was inactive.

As to `CCC(CN(C)C)C(=O)c1ccccc1.Cl` (stereo not drawn), the IC50 result in [4], in data set [5], in data set [6] and in data set [9] was “Not Active” throughout. Also, the inhibition entry in the data set with Escherichia coli [7] was “inactive”. The t1/2 result in data set [8] is listed as “Stable”. Moreover, the Activity result (in the data set with HaCaT; in [2]) was “Toxic” throughout. The outcome in the data set with A 172, in the data set with CAPAN-1, in the data set with Ca-Ski, with SW707, in the data set on Calu-6 and in the data set on MeWo was Active. Moreover, the result in the data set on BT-474 and with A-431 was Active.

Turning to `Cc1cc(C)c2c(c1)C(=O)C(CN(C)C)CC2.Cl` (stereo not drawn), the IC50 in data set [4] (read-out: IC50) is 45.5 µM; in data set [5], “Not Active”; in data set [6], “Not Active”; in data set [9], “Not Active”. Also, the inhibition at 200 µM with Escherichia coli [7] is 56%. In addition, the half-life at 250 µM in data set [8] turned out to be 14.4 h. In addition, the Activity result (with HaCaT; in data set [2]) was “Toxic” in each case. For the same compound, the outcome in the data set on A 172, in the data set with CAPAN-1, in the data set with Ca-Ski, with SW707, in the data set with Calu-6 and in the data set on MeWo was Active. The outcome with BT-474 and in the data set with A-431 was Active.

Consider `COc1cccc(C(=O)CCN(C)C)c1.Cl`, for which the IC50 result in data set [4], in [5], in data set [6] and in [9] was “Not Active” in each case. Further, the inhibition result in the data set on Escherichia coli [7] is “inactive”. In addition, the t1/2 result in data set [8] was “Stable”. In addition, the Activity result (with HaCaT; in [2]) was “Toxic” throughout. Also, the outcome in the data set with A 172, with CAPAN-1, with Ca-Ski, in the data set on SW707, in the data set on Calu-6 and in the data set with MeWo was Active. The outcome in the data set with BT-474 and in the data set on A-431 was Active.

For `CN(C)CC1CCc2ccccc2C1=O.Cl` (stereo not drawn), the IC50 in data set [4] (read-out: IC50) was 8.4 µM; in data set [5] it was “Not Active”; in data set [6] it was “Not Active”; in data set [9] it was “Not Active”. In addition, in the data set with Escherichia coli [7], the inhibition at 200 µM stood at 68%. For the same compound, in data set [8], the half-life at 250 µM worked out at 5.78 h. For the same compound, the Activity entry (in the data set with HaCaT; in data set [2]) was “Toxic” throughout. Besides, the result in the data set with A 172, in the data set on CAPAN-1, in the data set with Ca-Ski, in the data set with SW707, in the data set with Calu-6 and in the data set on MeWo was Active. Further, the result in the data set with BT-474 and with A-431 was Active.
